Source: article PMC3411647 (PLoS ONE, 2012)

Legend:
[1] = molecular target: T1, H3R (Homo sapiens, UniProt Q9Y5N1); assay: CRE-driven luciferase reporter gene assay in HEK-293 cells stably expressing hH3R; type: cell-based
T1 construct: expressed in transfected cells
Experimental: A, Concentration inhibition curve of luciferase activity induced by ZEL-H16 with forskolin stimulation. […] C. […] The presented data points are the mean ±SE of triplicate values from a single experiment and are representative of three to six separate experiments (*p<0.05; **p<0.01).
(§1) Luciferase activity was detected using a firefly luciferase kit (Promega, Madison, WI). When required, cells were treated overnight with or without PTX (100 ng/ml) in serum-free DMEM before the experiment.

[2] = molecular target: T2, human histamine H3 receptor (Homo sapiens, UniProt Q9Y5N1); assay: Competitive/saturation binding with [3H]N-α-methylhistamine, H3R/HEK-293 cell membranes
T2 construct: expressed in transfected cells
T2 sequence (Q9Y5N1 whole entry): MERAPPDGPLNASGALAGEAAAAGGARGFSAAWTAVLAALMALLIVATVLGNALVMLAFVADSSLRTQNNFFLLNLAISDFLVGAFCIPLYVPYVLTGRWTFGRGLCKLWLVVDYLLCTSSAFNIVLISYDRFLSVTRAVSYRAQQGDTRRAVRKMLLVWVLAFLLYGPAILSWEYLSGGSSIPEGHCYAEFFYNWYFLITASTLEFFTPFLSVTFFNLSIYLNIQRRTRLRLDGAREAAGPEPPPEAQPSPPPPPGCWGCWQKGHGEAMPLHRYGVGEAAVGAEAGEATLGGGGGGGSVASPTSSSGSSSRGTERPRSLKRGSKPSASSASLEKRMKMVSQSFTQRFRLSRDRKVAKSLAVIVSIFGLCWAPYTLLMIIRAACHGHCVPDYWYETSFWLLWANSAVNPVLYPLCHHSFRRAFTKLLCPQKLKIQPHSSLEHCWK
Experimental: Figure 4 Competition binding experiments with [^3H]-N-α-methylhistamine. […] The presented data are the means ±SE of values from a single experiment performed in duplicate and are representative of three to six separate experiments.
HEK-293 cells stably expressing H3R were harvested and resuspended in ice-cold 50 mM Tris-HCl (pH 7.4) containing a complete protease inhibitor cocktail tablet and mixed by inverting. The cell pellet was homogenized with a Polytron PT 1200 set at 4000 rpm and centrifuged at 1,000 g for 5 min. The supernatant was then centrifuged twice at 50,000 g for 30 min at 4°C. Finally, the resulting pellet was gently suspended in 50 mM Tris-HCl (pH 7.4) buffer and the membrane concentration was determined using Bio-Rad protein assays.
The membranes (50 µg of protein) were incubated with [^3H] N-α-methylhistamine at various concentrations (from 0.03 nM to 50 nM) for saturation binding assays. For competitive binding assays, the membranes (50 µg of protein) were incubated with 10 nM [^3H] N-α-methylhistamine for recombinant hH3R or 2nM [^3H] N-α-methylhistamine for rat brain H3R in the presence of various compound concentrations in the buffer (50 mM Tris–HCl, pH 7.4). […] Following three washes, the membrane-bound radioactivity was measured on a Topcount (PerkinElmer) at 20°C. […] IC50 values were converted to Ki values using the Cheng-Prusoff equation. Each experiment was performed in duplicate and repeated three to six times. All data were analyzed by nonline arregression using GraphPad Prism version 4.0 software.

[3] = molecular target: T3, hH1R (Homo sapiens, UniProt P35367); assay: Intracellular Ca2+ flux assay in HEK-293 cells stably expressing hH1R; type: cell-based
T3 construct: expressed in transfected cells
T3 sequence (P35367 whole entry): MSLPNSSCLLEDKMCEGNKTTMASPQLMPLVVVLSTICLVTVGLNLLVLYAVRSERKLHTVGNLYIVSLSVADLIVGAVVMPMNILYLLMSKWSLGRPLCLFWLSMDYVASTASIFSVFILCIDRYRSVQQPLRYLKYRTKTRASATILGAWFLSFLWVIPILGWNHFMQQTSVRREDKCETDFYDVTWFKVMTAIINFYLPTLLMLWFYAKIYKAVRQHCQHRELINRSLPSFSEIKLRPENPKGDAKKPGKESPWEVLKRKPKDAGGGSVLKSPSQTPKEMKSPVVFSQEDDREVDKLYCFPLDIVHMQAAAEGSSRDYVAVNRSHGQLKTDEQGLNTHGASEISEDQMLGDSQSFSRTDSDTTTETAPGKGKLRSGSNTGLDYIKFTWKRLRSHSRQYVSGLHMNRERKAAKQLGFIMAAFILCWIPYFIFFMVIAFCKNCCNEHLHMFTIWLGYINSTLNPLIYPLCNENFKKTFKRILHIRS
Description: (§2) Figure 3 The selectivity of ZEL-H16 for hH3R in intracellular Ca^2+ flux assay and CRE-luciferase transcription assay. A–C, Intracellular Ca^2+ flux or CRE-driven luciferase activity induced by ZEL-H16 in HEK-293 cells stably expressing hH1R (A), hH2R (B), or hH4R (C). […] The presented data points are the mean ±SE of triplicate values from a single experiment and are representative of three separate experiments. Statistical analysis between ZEL-H16 added or not added for each concentration point in the kinetic graph was done using a t-test (PRISM software). G, Relative expression of hH1R, hH2R, hH3R and hH4R on transfected HEK-293 cells by ELISA quantification for Flag-tagged cell-surface receptors (***p<0.001, compared to non-transfected HEK 293 cells).
The stably H1R-expressing HEK-293 cells were harvested with Cell Stripper (Mediatech, Herndon, VA), washed twice with phosphate-buffered saline (PBS), and resuspended in Hanks’ balanced salt solution (140 mM NaCl, 5 mM KCl, 10 mM HEPES, pH 7.4, 1 mM CaCl2, 1 mM MgCl2, 1 mg/ml glucose) containing 0.025% bovine serum albumin. […] Calcium flux was measured using excitation at 340 and 380 nm in a Infinite 200 PRO multifunctional microplate reader (Tecan Austria GmbH, Grödig, AT ) and [Ca^2+]i was measured using the 340/380 excitation ratio (R 340/380).

[4] = molecular target: T4, hH2R (Homo sapiens, UniProt P25021); assay: CRE-driven luciferase activity in HEK-293 cells stably expressing hH2R; type: cell-based
T4 construct: expressed in transfected cells
T4 sequence (P25021 whole entry): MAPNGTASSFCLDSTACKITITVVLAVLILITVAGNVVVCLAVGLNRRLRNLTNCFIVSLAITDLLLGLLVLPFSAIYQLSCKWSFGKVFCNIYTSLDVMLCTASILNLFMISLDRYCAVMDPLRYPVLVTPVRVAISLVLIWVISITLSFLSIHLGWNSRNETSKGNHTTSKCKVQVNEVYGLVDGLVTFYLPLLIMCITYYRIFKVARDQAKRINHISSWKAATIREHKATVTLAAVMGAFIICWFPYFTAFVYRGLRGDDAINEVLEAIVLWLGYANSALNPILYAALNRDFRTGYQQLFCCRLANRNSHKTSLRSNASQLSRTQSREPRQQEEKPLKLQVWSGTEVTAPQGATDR
Description: as §2
as §1, with “Stable HEK-293 cells co-transfected with H3R and pCRE-Luc were seeded in a 48-well plate overnight and were grown to […] confluence. […] Luciferase” for “Luciferase”

[5] = molecular target: T5, hH4R (Homo sapiens, UniProt Q9H3N8); assay: CRE-driven luciferase activity in HEK-293 cells stably expressing hH4R; type: cell-based
T5 construct: expressed in transfected cells
T5 sequence (Q9H3N8 whole entry): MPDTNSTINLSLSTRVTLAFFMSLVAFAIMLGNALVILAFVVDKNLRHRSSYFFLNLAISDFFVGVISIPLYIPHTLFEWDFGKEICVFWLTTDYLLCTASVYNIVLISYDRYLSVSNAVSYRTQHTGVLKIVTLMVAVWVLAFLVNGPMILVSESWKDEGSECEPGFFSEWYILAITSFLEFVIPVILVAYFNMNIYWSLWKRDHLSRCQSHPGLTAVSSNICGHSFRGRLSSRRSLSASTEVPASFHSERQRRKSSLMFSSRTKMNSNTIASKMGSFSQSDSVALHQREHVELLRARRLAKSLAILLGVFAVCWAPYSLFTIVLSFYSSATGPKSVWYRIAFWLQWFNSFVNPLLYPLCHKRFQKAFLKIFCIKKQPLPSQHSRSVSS
Description: as §2
as §1, with “Stable HEK-293 cells co-transfected with H3R and pCRE-Luc were seeded in a 48-well plate overnight and were grown to […] confluence. […] Luciferase” for “Luciferase”

[6] = molecular target: T6, H3R (Cavia porcellus, UniProt Q9JI35); assay: Guinea-pig ileum bioassay, inhibition of electrically induced twitch
T6 construct: from tissue; host or cells: guinea-pig ileum segments
T6 sequence (Q9JI35 whole entry): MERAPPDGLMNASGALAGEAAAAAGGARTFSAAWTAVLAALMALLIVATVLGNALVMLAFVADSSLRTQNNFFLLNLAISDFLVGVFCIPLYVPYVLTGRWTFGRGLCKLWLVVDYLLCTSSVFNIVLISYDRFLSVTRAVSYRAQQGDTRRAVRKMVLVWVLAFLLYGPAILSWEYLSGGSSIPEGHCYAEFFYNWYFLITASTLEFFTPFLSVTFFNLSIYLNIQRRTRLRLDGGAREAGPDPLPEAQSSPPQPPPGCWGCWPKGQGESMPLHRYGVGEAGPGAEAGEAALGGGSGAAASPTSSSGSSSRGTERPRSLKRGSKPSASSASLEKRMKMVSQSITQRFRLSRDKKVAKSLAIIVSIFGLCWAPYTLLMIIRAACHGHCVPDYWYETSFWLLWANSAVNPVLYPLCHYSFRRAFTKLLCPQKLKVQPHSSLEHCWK
Experimental: Each point is the mean ± s.e.m. of three to six separate experiments.
The procedure used was as described previously. Adult male guinea pigs (300–500 g) were killed by cervical dislocation. The ileum was removed at a point 20 cm from the caecum and flushed with and placed in modified K–H buffer of following composition: 118 mM NaCl, 5.9 mM KCl, 1.2 mM CaCl2, 1.2 mM MgSO4, 1 mM Na2HPO4, 25 mM NaHCO3 and 10 mM D-glucose. Ileum segments (2.5–3 cm) were suspended in 20 ml organ baths containing K–H buffer maintained at 37°C and gassed with 95% O2/5% CO2. Contractile activity under stimulation (rectangular pulses of 15 V, 0.5 ms, and 0.1 Hz) was recorded using isometric transducers (Grass FTO3). […] Mepyramine ([…]) and famotidine ([…]) (Sigma-Aldrich, St. Louis, MO) were added to the K–H buffer to block postsynaptic H1 and presynaptic H2 receptors, respectively.

T1 sequence (Q9Y5N1 whole entry): as the sequence (Q9Y5N1 whole entry) above

Structure (SMILES): c1ccc2c(c1)c(CCCN1CCCCC1)cn2CCCN1CCCCC1 [ZEL-H16]
- Emax ([1]; HEK293): 61 ± 3.2%
- Schild slope ([1]; agonist curves in the presence of 30 nM, 300 nM or 1 µM thioperamide): 1.140±0.168
- EC50 ([1]; inhibition of forskolin-induced luciferase activity, Mean ± SEM, n = 6): 4.36 ± 1.39 nM
- Ki ([2]; 10 nM [3H]N-α-methylhistamine, H3R/HEK-293 membranes, read-out: Ki): 2.07 ± 0.8 nM
- affinity for human H3R as compared to histamine ([2]; higher affinity than histamine): approximately 20 fold
- antagonist activity: influence on Ca2+ release stimulated by histamine ([3]; ZEL-H16 added to histamine): neither modulate the intracellular Ca^2+ release stimulated by histamine
- agonist activity: intracellular Ca2+ release ([3]; ZEL-H16 alone, compared to histamine): did not induce similar intracellular Ca^2+ release
- antagonist activity: influence on luciferase activity curves induced by histamine ([4]; ZEL-H16 added to histamine): did not significantly change the luciferase activity curves
- agonist activity: luciferase activity after stimulation ([4]; ZEL-H16 alone): no significant responses
- antagonist activity: influence on luciferase activity curves induced by histamine ([5]; ZEL-H16 added to histamine): did not significantly change the luciferase activity curves
- agonist activity: luciferase activity after stimulation ([5]; ZEL-H16 alone): no significant responses
- efficacy of inhibition of the contractions of the guinea pig ileum ([6]; electrically induced twitch, mepyramine and famotidine present): 54.03±5.13%
- EC50 ([6]; inhibition of electrically induced twitch, read-out: pD 2 (converted)): 269 nM
